Results published in US10683297B2 (Sunshine Lake Pharma Co., Ltd., priority 2017, dated 2020).
pIC50: −log10 of the molar value.

Tests used:
[1] = Compound stability in human liver microsomes; assay type: in vitro ADME; conditions: for half-life at 5 μM: human liver microsomes 0.5 mg protein/mL, compound 5 μM, NADPH 1.0 mM, pH 7.4, 37° C., read-out: Human T1/2; for CLint scaled at 5 μM: liver microsomes, pH 7.4, in vivo CLint extrapolated from human liver microsome incubation
Summary of the method: (§1)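 Compounds (5 μM) incubated at 37 °C with human or rat liver microsomes (0.5 mg protein/mL) and 1.0 mM NADPH in 100 mM phosphate buffer pH 7.4, 0.05% DMSO, in duplicate. Sampled 0–60 min, quantified by LC/MS/MS as % of time zero; CLint extrapolated.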

[2] = Compound stability in rat liver microsomes; assay type: in vitro ADME; conditions: for half-life at 5 μM: rat liver microsomes 0.5 mg protein/mL, compound 5 μM, NADPH 1.0 mM, pH 7.4, 37° C., read-out: Rat T1/2; for CLint scaled at 5 μM: liver microsomes, pH 7.4, in vivo CLint extrapolated from rat liver microsome incubation
Summary of the method: as §1

JAK1 (h) = target: T1, JAK1 (h) (Homo sapiens, UniProt P23458); experiment: JAK1 (h) kinase assay; assay type: biochemical; conditions: [γ-33P-ATP] 10 μM or KM values; 40 minutes at room temperature
T1 construct: purchased Millipore UK Ltd (assays performed there as a service)
Summary of the method: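 Radiometric filter-binding assay: human JAK1 incubated 40 min at room temperature in 20 mM Tris/HCl pH 7.5, 0.2 mM EDTA, 500 μM peptide substrate, 10 mM Mg acetate, with [γ-33P]ATP at 10 μM or KM. Reaction stopped with phosphoric acid; P30 filtermat scintillation counting.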

T1 sequence (P23458 whole entry): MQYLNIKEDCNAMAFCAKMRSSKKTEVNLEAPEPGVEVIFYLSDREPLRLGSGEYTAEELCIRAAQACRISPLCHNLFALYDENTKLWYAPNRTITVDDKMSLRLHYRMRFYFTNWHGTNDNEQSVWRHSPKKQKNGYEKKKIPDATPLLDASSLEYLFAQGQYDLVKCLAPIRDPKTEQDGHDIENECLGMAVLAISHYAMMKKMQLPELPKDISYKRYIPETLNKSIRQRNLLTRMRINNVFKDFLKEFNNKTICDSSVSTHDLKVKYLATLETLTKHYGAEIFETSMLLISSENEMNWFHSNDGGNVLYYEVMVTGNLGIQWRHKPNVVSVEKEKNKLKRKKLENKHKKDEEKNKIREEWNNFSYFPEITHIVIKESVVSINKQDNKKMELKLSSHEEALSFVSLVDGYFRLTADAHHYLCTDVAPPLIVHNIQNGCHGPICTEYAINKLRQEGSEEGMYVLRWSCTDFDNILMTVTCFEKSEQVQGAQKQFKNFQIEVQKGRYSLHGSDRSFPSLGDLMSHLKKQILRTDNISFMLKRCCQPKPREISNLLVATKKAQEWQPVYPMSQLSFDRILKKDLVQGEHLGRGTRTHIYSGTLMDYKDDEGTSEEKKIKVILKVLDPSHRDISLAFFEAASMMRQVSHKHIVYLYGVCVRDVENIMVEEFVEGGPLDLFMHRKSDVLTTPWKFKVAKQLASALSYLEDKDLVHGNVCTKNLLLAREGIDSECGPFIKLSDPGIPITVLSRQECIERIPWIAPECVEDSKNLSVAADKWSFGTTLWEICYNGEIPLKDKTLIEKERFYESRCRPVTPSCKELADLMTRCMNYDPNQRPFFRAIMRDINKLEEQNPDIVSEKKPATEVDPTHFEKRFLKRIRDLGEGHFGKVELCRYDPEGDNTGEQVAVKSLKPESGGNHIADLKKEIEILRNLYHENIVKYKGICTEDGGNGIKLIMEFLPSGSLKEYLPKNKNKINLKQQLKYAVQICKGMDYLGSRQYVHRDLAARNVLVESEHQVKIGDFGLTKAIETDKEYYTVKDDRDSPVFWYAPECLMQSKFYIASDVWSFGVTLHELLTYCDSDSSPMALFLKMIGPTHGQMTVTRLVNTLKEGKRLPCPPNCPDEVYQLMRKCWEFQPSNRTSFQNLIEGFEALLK

## CC(C)(O)Cc1nnc2cc(Nc3ncc(Cl)c(NC4CCN(c5ccc(C#N)cn5)CC4)n3)ccn12 [Example 74, 6-(4-((5-chloro-2-((3-(2-hydroxy-2-methylpropyl)-[1,2,4]triazolo[4,3-a]pyridin-7-yl)amino)pyrimidin-4-yl)amino)piperidin-1-yl)nicotinonitrile]
[1]
  half-life at 5 μM: > 1 h
[2]
  half-life at 5 μM: > 1 h
JAK1 (h)
  pIC50: 9.15

## CC(C)(O)c1nnc2cc(Nc3ncc(Cl)c(NC4CCN(c5ccc(C#N)cn5)CC4)n3)ccn12 [Example 40]
[1]
  half-life at 5 μM: 6.01 h
  CLint scaled at 5 μM: 0.288 L/h/kg
[2]
  CLint scaled at 5 μM: 2.68 L/h/kg
  half-life at 5 μM: 0.926 h
JAK1 (h)
  pIC50: > 9.52

## CC(C)(O)Cn1nnc2cc(Nc3ncc(Cl)c(NC4CCN(c5ccc(C#N)cn5)CC4)n3)ccc21 [Example 69, 6-(4-((5-chloro-2-((1-(2-hydroxy-2-methylpropyl)-1H-benzo[d][1,2,3]triazol-5-yl)amino)pyrimidin-4-yl)amino)piperidin-1-yl)nicotinonitrile]
[1]
  half-life at 5 μM: 8.27 h
  CLint scaled at 5 μM: 0.21 L/h/kg
[2]
  CLint scaled at 5 μM: 0.876 L/h/kg
  half-life at 5 μM: 2.84 h
JAK1 (h)
  pIC50: 9.30

## Cn1cnc2cc(Nc3ncc(Cl)c(NC4CCN(c5ccc(C#N)cn5)CC4)n3)ccc21 [Example 46, 6-(4-((5-chloro-2-((1-methyl-1H-benzo[d]imidazol-5-yl)amino)pyrimidin-4-yl)amino)piperidin-1-yl)nicotinonitrile]
[1]
  half-life at 5 μM: 1.05 h
  CLint scaled at 5 μM: 1.65 L/h/kg
[2]
  CLint scaled at 5 μM: 1.95 L/h/kg
  half-life at 5 μM: 1.27 h
JAK1 (h)
  pIC50: > 9.52

## N#Cc1ccc(N2CCC(Nc3nc(Nc4ccn5c(C(F)F)nnc5c4)ncc3Cl)CC2)nc1 [Example 30, 6-(4-((5-chloro-2-((3-(difluoromethyl)-[1,2,4]triazolo[4,3-a]pyridin-7-yl)amino)pyrimidin-4-yl)amino)piperidin-1-yl)nicotinonitrile]
[1]
  half-life at 5 μM: 2.1 h
  CLint scaled at 5 μM: 0.83 L/h/kg
[2]
  CLint scaled at 5 μM: 1.85 L/h/kg
  half-life at 5 μM: 1.34 h
JAK1 (h)
  pIC50: 9.05

## CC(C)(O)Cc1nc2ccc(Nc3ncc(Cl)c(NC4CCN(c5ccc(C#N)cn5)CC4)n3)cn2n1 [Example 67, 6-(4-((5-chloro-2-((2-(2-hydroxy-2-methylpropyl)-[1,2,4]triazolo[1,5-a]pyridin-6-yl)amino)pyrimidin-4-yl)amino)piperidin-1-yl)nicotinonitrile]
[1]
  half-life at 5 μM: 2.12 h
  CLint scaled at 5 μM: 0.822 L/h/kg
[2]
  CLint scaled at 5 μM: 4.84 L/h/kg
  half-life at 5 μM: 0.514 h
JAK1 (h)
  pIC50: 9.22

## CC(C)(O)Cc1nnc2cc(Nc3ncc(Cl)c(NC4CCN(c5ccc(C#N)nn5)CC4)n3)ccn12 [Example 75, 6-(4-((5-chloro-2-((3-(2-hydroxy-2-methylpropyl)-[1,2,4]triazolo[4,3-a]pyridin-7-yl)amino)pyrimidin-4-yl)amino)piperidin-1-yl)pyridazine-3-carbonitrile]
[1]
  half-life at 5 μM: > 1 h
[2]
  half-life at 5 μM: > 1 h
JAK1 (h)
  pIC50: 9.00

## Cc1nc2cc(Nc3ncc(Cl)c(NC4CCN(c5ccc(C#N)cn5)CC4)n3)ccc2n1C [Example 48, 6-(4-((5-chloro-2-((1,2-dimethyl-1H-benzo[d]imidazol-5-yl)amino)pyrimidin-4-yl)amino)piperidin-1-yl)nicotinonitrile]
[1]
  half-life at 5 μM: 0.617 h
  CLint scaled at 5 μM: 2.82 L/h/kg
[2]
  CLint scaled at 5 μM: 2.68 L/h/kg
  half-life at 5 μM: 0.928 h
JAK1 (h)
  pIC50: > 9.52
